Source: ChEMBL document CHEMBL1201862, “PubChem BioAssay data set” (2004)
Calls of active or inactive are those of the source.

Assays:
[1] = molecular target: FAD-linked sulfhydryl oxidase ALR (Homo sapiens, UniProt P55789); assay: inhibitors of human ALR sulfhydryl oxidase, dose response, biochemical, H2O2 detection, luminescence, cherry-pick (AID 493248)
[2] = Shn3 3'UTR reporter inhibitors, dose response, cell-based, Clone20 osteoblasts, firefly luciferase, cherry-picked (AID 624132); assay type: functional;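 note: firefly luciferase luminescence from reporter carrying the Shn3 3'UTR in osteoblasts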
[3] = HepG2 cell cytotoxicity, dose response, cytotoxicity control for Shn3 inhibitor project, CellTiter-Glo, cherry-picked (AID 624134); assay type: functional, cell-based
[4] = control 3'UTR Renilla luciferase suppression, dose response, counter-screen for Shn3 inhibitor project, cell-based, Clone20-Shn3RL, cherry-picked (AID 624133); assay type: functional
[5] = test system: Streptococcus sp. 'group A'; assay: growth inhibition of control SK(-) GAS strain, dose response, counter-screen for streptokinase expression inhibitor project, luminescence, kanamycin, BacTiterGlo, confirmation (AID 1900); assay type: functional, organism-based
Streptokinase A = molecular target: T1, Streptokinase A (Streptococcus pyogenes serotype M1, UniProt P10520); assay: S. pyogenes streptokinase expression inhibitors, potency, dose response, plasminogen activation absorbance, OD405 (AID 1914); assay type: functional, Streptococcus pyogenes M1 GAS;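 note: secreted streptokinase activity via plasminogen activation per viability signal from cell pellet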
T1 sequence (P10520 whole entry): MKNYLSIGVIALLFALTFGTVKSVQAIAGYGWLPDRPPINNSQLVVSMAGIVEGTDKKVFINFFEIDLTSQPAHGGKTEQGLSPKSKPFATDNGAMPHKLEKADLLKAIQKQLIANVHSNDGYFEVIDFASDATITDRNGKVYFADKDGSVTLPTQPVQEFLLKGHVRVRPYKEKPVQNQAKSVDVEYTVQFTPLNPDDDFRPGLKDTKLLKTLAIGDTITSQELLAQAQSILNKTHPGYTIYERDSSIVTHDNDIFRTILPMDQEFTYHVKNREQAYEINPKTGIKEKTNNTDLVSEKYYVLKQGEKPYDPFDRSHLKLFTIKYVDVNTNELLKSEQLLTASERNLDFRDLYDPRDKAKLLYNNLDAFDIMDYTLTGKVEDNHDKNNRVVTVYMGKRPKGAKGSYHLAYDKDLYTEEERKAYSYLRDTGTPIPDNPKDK

Streptococcus = assay: Group A Streptococcus viability loss, dose response, counter-screen for streptokinase expression inhibitor project, luminescence, BacTiterGlo (AID 1915); assay type: functional, organism-based;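 note: potency for reduction of bacterial viability or growth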
[6] = inhibitors of HIV Env-driven cell fusion, dose response, cherry-pick (AID 652057); assay type: functional, cell-based
[7] = ZM109 Env clade C HIV-1 fusion inhibitors, dose response, HeLa effector, CEM target cells, luciferase, cherry-pick (AID 652058); assay type: functional, cell-based
[8] = off-target signal loss in HeLa-CEM21 co-culture – HeLa F-luc CTL cells, cherry-picked, counter-screen for HIV-1 Env fusion inhibitor project, dose response (AID 652040); assay type: functional, cell-based;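 note: potency for signal decrease marking cytotoxic or nonspecific inhibition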
Cytochrome P450 1A2 = molecular target: T2, Cytochrome P450 1A2 (Homo sapiens, UniProt P05177);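 note: PubChem cytochrome P450 panel assay, CYP1A2 panel member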
T2 sequence (P05177 whole entry): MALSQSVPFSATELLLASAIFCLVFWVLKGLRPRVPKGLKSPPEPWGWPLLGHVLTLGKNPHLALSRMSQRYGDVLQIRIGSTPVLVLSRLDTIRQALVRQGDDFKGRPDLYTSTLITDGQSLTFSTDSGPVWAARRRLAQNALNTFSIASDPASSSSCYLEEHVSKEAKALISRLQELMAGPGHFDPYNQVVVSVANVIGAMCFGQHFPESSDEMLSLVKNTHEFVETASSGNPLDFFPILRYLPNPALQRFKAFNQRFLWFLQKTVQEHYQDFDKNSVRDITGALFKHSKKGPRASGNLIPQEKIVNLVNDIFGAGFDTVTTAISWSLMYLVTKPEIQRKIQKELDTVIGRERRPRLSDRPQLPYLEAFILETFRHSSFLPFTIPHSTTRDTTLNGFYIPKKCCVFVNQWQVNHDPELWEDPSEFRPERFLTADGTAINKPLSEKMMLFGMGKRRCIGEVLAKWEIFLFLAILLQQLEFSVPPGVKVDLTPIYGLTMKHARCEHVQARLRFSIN

Cytochrome P450 2C9 = Cytochrome P450 2C9 (Homo sapiens, UniProt P11712)
[9] = molecular target: Heat shock protein HSP 90-alpha (Homo sapiens, UniProt P07900); assay type: functional, organism-based
Vero = assay: cells; assay type: functional; settings: Chlorocebus sabaeus
[10] = molecular target: T3, Short transient receptor potential channel 4 (Mus musculus, UniProt Q9QUQ5); assay: mouse TRPC4 channel activators, dose response, cell-based, HEK293 TRPC4/mu-opioid, Fluo-4 calcium (AID 434937); assay type: functional
T3 sequence (Q9QUQ5 whole entry): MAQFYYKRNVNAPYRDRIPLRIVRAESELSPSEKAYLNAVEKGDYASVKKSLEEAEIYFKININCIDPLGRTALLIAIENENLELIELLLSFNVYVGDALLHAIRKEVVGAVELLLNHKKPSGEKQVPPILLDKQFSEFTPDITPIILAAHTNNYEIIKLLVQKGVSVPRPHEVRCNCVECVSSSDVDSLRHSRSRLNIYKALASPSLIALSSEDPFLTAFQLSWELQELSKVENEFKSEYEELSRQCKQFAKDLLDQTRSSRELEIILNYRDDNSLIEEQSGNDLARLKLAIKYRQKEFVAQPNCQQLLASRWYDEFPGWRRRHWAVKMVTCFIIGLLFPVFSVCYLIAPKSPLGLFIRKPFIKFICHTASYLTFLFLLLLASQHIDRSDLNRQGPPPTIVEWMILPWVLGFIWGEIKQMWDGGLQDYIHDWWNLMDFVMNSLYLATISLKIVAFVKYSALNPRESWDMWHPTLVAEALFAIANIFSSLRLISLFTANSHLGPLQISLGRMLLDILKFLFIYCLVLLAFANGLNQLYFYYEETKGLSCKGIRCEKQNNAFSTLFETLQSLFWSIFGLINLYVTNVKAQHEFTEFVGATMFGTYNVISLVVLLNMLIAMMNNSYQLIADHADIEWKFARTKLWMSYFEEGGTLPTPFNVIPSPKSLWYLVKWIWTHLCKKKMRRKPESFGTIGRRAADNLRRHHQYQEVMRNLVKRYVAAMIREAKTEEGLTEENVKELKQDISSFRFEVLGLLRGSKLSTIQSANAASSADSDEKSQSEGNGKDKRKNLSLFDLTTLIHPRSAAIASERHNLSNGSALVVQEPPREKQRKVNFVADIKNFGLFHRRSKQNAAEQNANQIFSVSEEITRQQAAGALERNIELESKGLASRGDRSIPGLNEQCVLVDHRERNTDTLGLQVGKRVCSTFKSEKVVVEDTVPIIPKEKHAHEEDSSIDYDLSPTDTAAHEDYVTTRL

P388/ADR = assay: cells; assay type: functional; settings: Mus musculus
SN12K1 = assay: cells; assay type: functional; settings: Homo sapiens
Nonstructural protein 1 = Nonstructural protein 1 (Influenza A virus, UniProt Q194T2); assay type: functional, Influenza A virus (A/California/07/2009(H1N1))
[11] = molecular target: T4, Carboxy-terminal domain RNA polymerase II polypeptide A small phosphatase 1 (Homo sapiens, UniProt Q9GZU7); assay: inhibitors of CTDSP1, concentration-response testing, biochemical assay, absorbance-based, actives from ultra-high-throughput screening (AID 540297); assay type: functional
T4 sequence (Q9GZU7 whole entry): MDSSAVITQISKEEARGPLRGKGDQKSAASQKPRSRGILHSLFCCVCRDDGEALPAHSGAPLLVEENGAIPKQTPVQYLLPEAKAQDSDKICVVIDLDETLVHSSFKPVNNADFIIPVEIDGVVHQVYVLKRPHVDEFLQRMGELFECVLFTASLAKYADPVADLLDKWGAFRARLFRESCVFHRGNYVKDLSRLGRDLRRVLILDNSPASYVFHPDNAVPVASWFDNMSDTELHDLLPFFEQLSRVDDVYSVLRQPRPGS

[12] = molecular target: T5, Ubiquitin-conjugating enzyme E2 N (Homo sapiens, UniProt P61088); assay type: functional;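 note: Dose-response confirmation in a TR-FRET assay detecting UBC13-driven polyubiquitin chain formation, inhibition measured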
T5 sequence (P61088 whole entry): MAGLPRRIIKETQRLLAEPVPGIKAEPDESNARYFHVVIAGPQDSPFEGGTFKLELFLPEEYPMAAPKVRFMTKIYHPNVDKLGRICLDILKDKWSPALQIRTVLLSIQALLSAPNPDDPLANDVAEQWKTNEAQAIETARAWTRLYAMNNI

[13] = inhibitors of clade B AD8 Env fusion, dose response, cell-based, cherry-pick (AID 652062); assay type: functional;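 note: luciferase signal from cell-cell fusion driven by HIV-1 clade B AD8 Env; potency is for inhibitors of fusion seen as a drop in luminescence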
[14] = HEp-2 cell cytotoxicity, dose response, cytotoxicity control for RSV inhibitor project, HTS (AID 2410); assay type: functional; settings: human respiratory syncytial virus
Fatty acid synthase = Fatty acid synthase (Homo sapiens, UniProt P49327); assay: FAS thioesterase domain inhibitors, dose response, biochemical, kinetic fluorescence intensity (AID 624326); assay type: functional;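 note: rate of fluorescence rise from hydrolysis of a fluorogenic O-methyl fluorescein ester substrate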
Fatty acid synthase, sequence (P49327 whole entry, the tested form may be a part): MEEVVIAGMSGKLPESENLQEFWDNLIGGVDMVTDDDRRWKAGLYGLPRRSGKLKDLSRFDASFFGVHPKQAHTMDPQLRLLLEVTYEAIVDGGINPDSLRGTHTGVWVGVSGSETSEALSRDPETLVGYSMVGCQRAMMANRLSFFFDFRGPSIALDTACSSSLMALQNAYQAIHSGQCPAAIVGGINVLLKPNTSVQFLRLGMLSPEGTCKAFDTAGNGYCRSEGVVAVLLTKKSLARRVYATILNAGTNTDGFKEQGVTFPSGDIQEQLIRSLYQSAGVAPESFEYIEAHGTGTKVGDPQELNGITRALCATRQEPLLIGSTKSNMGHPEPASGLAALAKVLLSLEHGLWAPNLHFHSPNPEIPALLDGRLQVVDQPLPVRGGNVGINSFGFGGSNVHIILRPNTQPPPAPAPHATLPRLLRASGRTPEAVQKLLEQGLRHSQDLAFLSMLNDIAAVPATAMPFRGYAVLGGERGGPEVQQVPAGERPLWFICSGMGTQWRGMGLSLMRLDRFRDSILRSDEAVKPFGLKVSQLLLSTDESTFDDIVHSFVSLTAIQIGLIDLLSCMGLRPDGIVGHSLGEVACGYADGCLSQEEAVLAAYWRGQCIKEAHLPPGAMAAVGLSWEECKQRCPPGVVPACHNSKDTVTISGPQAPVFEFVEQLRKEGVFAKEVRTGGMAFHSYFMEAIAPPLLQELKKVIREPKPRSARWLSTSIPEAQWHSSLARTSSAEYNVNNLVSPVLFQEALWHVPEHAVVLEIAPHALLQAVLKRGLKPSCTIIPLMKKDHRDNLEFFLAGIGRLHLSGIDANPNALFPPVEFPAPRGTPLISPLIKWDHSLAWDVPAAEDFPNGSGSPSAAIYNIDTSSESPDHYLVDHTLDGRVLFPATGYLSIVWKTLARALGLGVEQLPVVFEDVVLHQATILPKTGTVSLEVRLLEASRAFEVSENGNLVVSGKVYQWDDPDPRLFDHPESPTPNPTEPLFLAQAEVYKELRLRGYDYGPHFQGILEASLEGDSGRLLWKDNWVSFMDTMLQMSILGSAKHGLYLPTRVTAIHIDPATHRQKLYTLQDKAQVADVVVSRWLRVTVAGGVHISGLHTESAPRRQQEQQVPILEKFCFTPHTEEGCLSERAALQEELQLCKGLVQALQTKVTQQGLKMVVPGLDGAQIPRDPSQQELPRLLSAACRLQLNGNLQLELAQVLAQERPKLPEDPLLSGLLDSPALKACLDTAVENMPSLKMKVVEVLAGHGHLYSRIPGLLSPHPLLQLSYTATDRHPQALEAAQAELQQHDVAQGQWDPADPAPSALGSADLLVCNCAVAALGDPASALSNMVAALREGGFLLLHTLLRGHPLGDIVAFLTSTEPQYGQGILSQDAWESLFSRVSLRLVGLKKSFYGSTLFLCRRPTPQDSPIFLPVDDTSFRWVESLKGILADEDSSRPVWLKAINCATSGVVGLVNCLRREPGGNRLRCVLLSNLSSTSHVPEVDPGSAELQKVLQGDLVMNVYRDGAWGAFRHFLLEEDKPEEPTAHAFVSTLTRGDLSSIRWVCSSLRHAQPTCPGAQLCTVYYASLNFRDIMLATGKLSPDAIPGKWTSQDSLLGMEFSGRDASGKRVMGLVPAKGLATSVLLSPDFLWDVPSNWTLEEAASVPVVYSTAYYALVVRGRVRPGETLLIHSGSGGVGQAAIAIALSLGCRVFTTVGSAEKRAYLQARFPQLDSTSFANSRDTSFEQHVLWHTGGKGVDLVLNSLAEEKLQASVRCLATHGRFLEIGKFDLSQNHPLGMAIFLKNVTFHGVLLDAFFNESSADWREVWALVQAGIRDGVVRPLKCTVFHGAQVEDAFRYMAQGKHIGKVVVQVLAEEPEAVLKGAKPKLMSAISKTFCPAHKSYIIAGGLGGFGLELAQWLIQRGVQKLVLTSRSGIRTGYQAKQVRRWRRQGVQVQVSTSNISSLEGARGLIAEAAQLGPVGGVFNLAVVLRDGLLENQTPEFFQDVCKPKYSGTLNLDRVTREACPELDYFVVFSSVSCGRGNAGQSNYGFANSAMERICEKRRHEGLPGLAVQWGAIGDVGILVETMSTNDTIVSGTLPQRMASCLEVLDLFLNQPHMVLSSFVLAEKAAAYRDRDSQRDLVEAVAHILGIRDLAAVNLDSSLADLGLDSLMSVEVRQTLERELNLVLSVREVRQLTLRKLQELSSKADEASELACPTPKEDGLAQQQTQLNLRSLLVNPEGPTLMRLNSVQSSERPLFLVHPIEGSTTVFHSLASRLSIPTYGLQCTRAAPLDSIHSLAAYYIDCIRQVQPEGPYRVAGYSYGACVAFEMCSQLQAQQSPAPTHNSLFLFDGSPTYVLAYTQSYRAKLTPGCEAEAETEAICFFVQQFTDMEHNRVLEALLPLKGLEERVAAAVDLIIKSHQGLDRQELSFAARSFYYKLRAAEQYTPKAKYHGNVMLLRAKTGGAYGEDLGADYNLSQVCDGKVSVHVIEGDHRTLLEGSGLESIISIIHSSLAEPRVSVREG

Nonstructural protein 1, sequence (Q194T2 whole entry, the tested form may be a part): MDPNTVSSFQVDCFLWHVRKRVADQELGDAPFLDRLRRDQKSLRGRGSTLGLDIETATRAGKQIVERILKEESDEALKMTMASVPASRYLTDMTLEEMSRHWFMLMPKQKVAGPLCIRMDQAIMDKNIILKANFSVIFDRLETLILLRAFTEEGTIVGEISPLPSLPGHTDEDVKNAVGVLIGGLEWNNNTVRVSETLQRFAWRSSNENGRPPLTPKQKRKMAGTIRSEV
Cytochrome P450 2C9, sequence (P11712 whole entry): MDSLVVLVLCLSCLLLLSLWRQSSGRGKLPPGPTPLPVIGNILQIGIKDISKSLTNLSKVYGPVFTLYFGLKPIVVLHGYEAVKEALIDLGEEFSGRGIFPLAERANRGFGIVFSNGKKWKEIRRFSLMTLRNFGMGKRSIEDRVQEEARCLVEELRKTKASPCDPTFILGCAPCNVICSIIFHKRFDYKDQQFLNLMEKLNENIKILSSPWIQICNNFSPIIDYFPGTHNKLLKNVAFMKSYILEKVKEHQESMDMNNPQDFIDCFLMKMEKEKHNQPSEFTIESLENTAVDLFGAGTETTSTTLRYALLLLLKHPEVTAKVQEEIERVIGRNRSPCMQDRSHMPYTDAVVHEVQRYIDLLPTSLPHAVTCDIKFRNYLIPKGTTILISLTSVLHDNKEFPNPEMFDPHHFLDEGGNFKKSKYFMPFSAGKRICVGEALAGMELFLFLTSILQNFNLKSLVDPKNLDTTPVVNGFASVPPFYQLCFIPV
FAD-linked sulfhydryl oxidase ALR, sequence (P55789 whole entry): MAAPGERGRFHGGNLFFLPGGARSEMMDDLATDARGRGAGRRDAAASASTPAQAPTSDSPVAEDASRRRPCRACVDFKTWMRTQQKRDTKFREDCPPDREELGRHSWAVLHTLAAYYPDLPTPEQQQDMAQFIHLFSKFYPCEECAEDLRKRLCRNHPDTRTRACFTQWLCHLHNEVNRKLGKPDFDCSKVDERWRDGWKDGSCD

COC(=O)/C=C/S(=O)(=O)c1ccc(NC(C)=O)cc1
AC50 [1]: 0.118 µM (active) | AC50 [2]: 7.3 µM (active) | AC50 [3]: 42.2 µM (active) | AC50 [4]: 14.2 µM (active)

CCCCCCc1nc2ccccc2c(=O)n1NC(=O)c1c(O)c2c(n(CC(C)C)c1=O)CCCC2
EC50 [5]: 84.9 µM (active) | EC50 (Streptokinase A): > 150 µM (not active) | EC50 (Streptococcus): > 150 µM (not active) | AC50 [6]: 22.8 µM (active) | AC50 [7]: 69.4 µM (active) | AC50 [8]: 4.42 µM (active) | AC50 (Cytochrome P450 1A2): 15.8 µM (inconclusive) | AC50 (Cytochrome P450 2C9): 0.708 µM (inconclusive)

O=S(=O)(NCc1ccncc1)c1ccc(F)c(F)c1
AC50 [2]: 2.09 µM (active) | AC50 [3]: 54.7 µM (active) | AC50 [4]: 1.2 µM (active)

Oc1ccc(/C=C/c2ccc3cccc(O)c3n2)cc1Br
EC50 [5]: 1.03 µM (active) | EC50 (Streptococcus): 2.72 µM (active) | AC50 [9]: 1.35 µM (active)

Cc1ccc2oc(=O)c3cc(C(=O)NCCCN4CCCC(C)C4)sc3c2c1 (stereo not drawn)
CC50 (Vero): > 25 µM (active)

CC1CN(c2ccc([N+](=O)[O-])c3cccnc23)CC(C)N1 (stereo not drawn)
EC50 [10]: 0.335 µM (active)

CC(=O)Oc1c(OC(C)=O)c(-c2ccc(O)c(O)c2)c(O)c(O)c1-c1ccc(O)cc1
GI50 (P388/ADR): 20.7 µM (inactive) | GI50 (SN12K1): > 100 µM (inactive)

c1coc(CN(Cc2ccco2)c2ncnc3c2oc2ccccc23)c1
AC50 [2]: 5.45 µM (active) | AC50 [3]: 67 µM (active) | AC50 [4]: 3.94 µM (active)

N#Cc1nc(-c2ccco2)oc1N1CCc2ccccc2C1
IC50 (Nonstructural protein 1): > 100 µM (active)

Nc1nc(N)nc(-c2ccccn2)n1
IC50 (Nonstructural protein 1): 19.9 µM (active)

Cc1csc(NC(=O)CSc2sc3c(O)cc(O)nc3c2C#N)n1
IC50 [11]: 5.14 µM (active)

N#C/C(=C/C1=C(N2CCOCC2)C(=C/c2ccccc2)/CC1)C(=O)Nc1ccccc1F
IC50 (Nonstructural protein 1): 3.83 µM (active)

O=C(CSc1nc2ccsc2c(=O)n1Cc1ccc(C(=O)O)cc1)NCc1ccco1
IC50 [12]: > 20 µM (inactive)

N#C/C(=C/c1ccc(OC(=O)c2ccc(Br)s2)cc1)c1nc2ccccc2[nH]1
IC50 [11]: 1.82 µM (active)

CCOC(=O)C1(Cc2cccc(F)c2)CCN(Cc2cnn(CC)c2)CC1
EC50 [10]: 0.668 µM (active)

COc1ccc(C(=O)O/N=C2\C(=O)N(C)c3ccccc32)cc1
AC50 [9]: 1.1 µM (active)

C=CCNc1ncnc2ccc(Br)cc12
AC50 [6]: 4.53 µM (active) | AC50 [7]: 39.1 µM (active) | AC50 [8]: 5.9 µM (active) | AC50 [13]: 6.46 µM (active)

O=C1C(NS(=O)(=O)c2cccs2)=C(N2CCN(c3cccc(C(F)(F)F)c3)CC2)C(=O)c2ccccc21
CC50 [14]: 12.4 µM (active) | EC50 [5]: 7.31 µM (active) | EC50 (Streptokinase A): > 150 µM (not active) | EC50 (Streptococcus): 13.5 µM (active) | IC50 (Nonstructural protein 1): 19.6 µM (active)

Cc1ccc(-n2cc(CNC(C)Cc3cnccn3)c(-c3cccc(C)c3)n2)cc1 (stereo not drawn)
EC50 [10]: 5.96 µM (active)

CCc1nc2c(OCc3ccc(C(F)(F)F)cc3)cccn2c1N(C=O)Cc1ccc(OC)cc1
IC50 (Fatty acid synthase): 9.21 µM (active)

O=C(N/N=C/c1cc(Br)c(Br)o1)c1cc2ccccc2o1
IC50 [11]: 5.65 µM (active)

COc1ccc(S(=O)(=O)N(C)C)cc1NC(=O)C1CCN(c2ncnc3sc(C)c(C)c23)CC1
AC50 [2]: 9.21 µM (active) | AC50 [3]: > 70 µM (inactive) | AC50 [4]: 18.9 µM (active)

c1ccc(C[C@H]2CNCCN2CCC23CC4CC(CC(C4)C2)C3)cc1
IC50 [12]: > 20 µM (inactive)

O=c1c(Cc2ccccc2)c(O)ccn1CCc1c[nH]cn1
EC50 [10]: 3.76 µM (active)

CCN1CCN(c2ccc(S(=O)(=O)N3CCOCC3)cc2NC(=O)c2ccccc2OC(F)F)CC1
EC50 [10]: 0.299 µM (active)

O=C(C1CCCN(Cc2ccncc2)C1)N1CCc2ccccc2C1 (stereo not drawn)
EC50 [10]: 0.188 µM (active)

CC[C@@]1(C(=O)OC)N[C@H](CN(C)C(=O)COc2ccccc2)[C@@H]2C(=O)N(Cc3ccccc3)C(=O)[C@@H]21
AC50 [6]: 2.2 µM (active) | AC50 [7]: 1.53 µM (active) | AC50 [8]: 4.2 µM (active) | AC50 [13]: 3.82 µM (active)

COc1cccc(-c2nnc3n2N=C(c2cc(OC)ccc2OC)CS3)c1
IC50 [12]: > 20 µM (inactive)

O=C(OCc1nnc(-c2ccccc2)o1)c1ccc(S(=O)(=O)NCc2ccco2)cc1
IC50 [11]: 13.4 µM (active)
